Key:
PAK4 = PAK4 (Homo sapiens, UniProt O96013); test: Kinase selectivity screen; settings: read-out: % Inhibition PAK4
RPS6KA1 = RPS6KA1 (Homo sapiens, UniProt Q15418); test: Kinase selectivity screen; settings: read-out: % Inhibition RPS6KA1
MARK1 = MARK1 (Homo sapiens, UniProt Q9P0L2); test: Kinase selectivity screen; settings: read-out: % Inhibition MARK1
STK4 = STK4 (Homo sapiens, UniProt Q13043); test: Kinase selectivity screen; settings: read-out: % Inhibition STK4
IRAK4 = IRAK4 (Homo sapiens, UniProt Q9NWZ3); test: Kinase selectivity screen; settings: read-out: % Inhibition IRAK4
CDK2/CCNA2 = CDK2/CCNA2 (Homo sapiens, UniProt P24941); test: Kinase selectivity screen; settings: read-out: % Inhibition CDK2/CCNA2
PRKCA = PRKCA (Homo sapiens, UniProt P17252); test: Kinase selectivity screen; settings: read-out: % Inhibition PRKCA
FLT3 = FLT3 (Homo sapiens, UniProt P36888); test: Kinase selectivity screen; settings: read-out: % Inhibition FLT3
BTK = BTK (Homo sapiens, UniProt Q06187); test: Kinase selectivity screen; settings: read-out: % Inhibition BTK
MINK1 = MINK1 (Homo sapiens, UniProt Q8N4C8); test: Kinase selectivity screen; settings: read-out: % Inhibition MINK1
PAK1 = PAK1 (Homo sapiens, UniProt Q13153); test: Kinase selectivity screen; settings: read-out: % Inhibition PAK1
STK10 = STK10 (Homo sapiens, UniProt O94804); test: Kinase selectivity screen; settings: read-out: % Inhibition STK10
SGK1 = SGK1 (Homo sapiens, UniProt O00141); test: Kinase selectivity screen; settings: read-out: % Inhibition SGK1
JAK2 = JAK2 (Homo sapiens, UniProt O60674); test: Kinase selectivity screen; settings: read-out: % Inhibition JAK2
PIK3C2G = PIK3C2G (Homo sapiens, UniProt O75747); test: Kinase selectivity screen; settings: read-out: % Inhibition PIK3C2G
PLK1 = PLK1 (Homo sapiens, UniProt P53350); test: Kinase selectivity screen; settings: read-out: % Inhibition PLK1
PRKAA2 = PRKAA2 (Homo sapiens, UniProt P54646); test: Kinase selectivity screen; settings: read-out: % Inhibition PRKAA2
MAPK8 = MAPK8 (Homo sapiens, UniProt P45983); test: Kinase selectivity screen; settings: read-out: % Inhibition MAPK8
ROCK1 = ROCK1 (Homo sapiens, UniProt Q13464); test: Kinase selectivity screen; settings: read-out: % Inhibition ROCK1
PIP4K2A = PIP4K2A (Homo sapiens, UniProt P48426); test: Kinase selectivity screen; settings: read-out: % Inhibition PIP4K2A
MAP3K9 = MAP3K9 (Homo sapiens, UniProt P80192); test: Kinase selectivity screen; settings: read-out: % Inhibition MAP3K9
ACVR1B = ACVR1B (Homo sapiens, UniProt P36896); test: Kinase selectivity screen; settings: read-out: % Inhibition ACVR1B
NUAK1 = NUAK1 (Homo sapiens, UniProt O60285); test: Kinase selectivity screen; settings: read-out: % Inhibition NUAK1
PIP5K1A = PIP5K1A (Homo sapiens, UniProt Q99755); test: Kinase selectivity screen; settings: read-out: % Inhibition PIP5K1A
PRKG1 = PRKG1 (Homo sapiens, UniProt Q13976); test: Kinase selectivity screen; settings: read-out: % Inhibition PRKG1
Full-length human MNK2 = Full-length human MNK2 (Homo sapiens, UniProt Q9HBH9, T379D); test: MNK2 biochemical IC50 assay (Caliper mobility shift)
ULK2 = ULK2 (Homo sapiens, UniProt Q8IYT8); test: Kinase selectivity screen; settings: read-out: % Inhibition ULK2
CHEK1 = CHEK1 (Homo sapiens, UniProt O14757); test: Kinase selectivity screen; settings: read-out: % Inhibition CHEK1
MAP2K7 = MAP2K7 (Homo sapiens, UniProt O14733); test: Kinase selectivity screen; settings: read-out: % Inhibition MAP2K7
DMPK = DMPK (Homo sapiens, UniProt Q09013); test: Kinase selectivity screen; settings: read-out: % Inhibition DMPK
MAP3K7 = MAP3K7 (Homo sapiens, UniProt O43318); test: Kinase selectivity screen; settings: read-out: % Inhibition MAP3K7
RET = RET (Homo sapiens, UniProt P07949); test: Kinase selectivity screen; settings: read-out: % Inhibition RET
FLT1 = FLT1 (Homo sapiens, UniProt P17948); test: Kinase selectivity screen; settings: read-out: % Inhibition FLT1
MTOR = MTOR (Homo sapiens, UniProt P42345); test: Kinase selectivity screen; settings: read-out: % Inhibition MTOR

Chain of ROCK1 (Q13464 whole entry, species assumed): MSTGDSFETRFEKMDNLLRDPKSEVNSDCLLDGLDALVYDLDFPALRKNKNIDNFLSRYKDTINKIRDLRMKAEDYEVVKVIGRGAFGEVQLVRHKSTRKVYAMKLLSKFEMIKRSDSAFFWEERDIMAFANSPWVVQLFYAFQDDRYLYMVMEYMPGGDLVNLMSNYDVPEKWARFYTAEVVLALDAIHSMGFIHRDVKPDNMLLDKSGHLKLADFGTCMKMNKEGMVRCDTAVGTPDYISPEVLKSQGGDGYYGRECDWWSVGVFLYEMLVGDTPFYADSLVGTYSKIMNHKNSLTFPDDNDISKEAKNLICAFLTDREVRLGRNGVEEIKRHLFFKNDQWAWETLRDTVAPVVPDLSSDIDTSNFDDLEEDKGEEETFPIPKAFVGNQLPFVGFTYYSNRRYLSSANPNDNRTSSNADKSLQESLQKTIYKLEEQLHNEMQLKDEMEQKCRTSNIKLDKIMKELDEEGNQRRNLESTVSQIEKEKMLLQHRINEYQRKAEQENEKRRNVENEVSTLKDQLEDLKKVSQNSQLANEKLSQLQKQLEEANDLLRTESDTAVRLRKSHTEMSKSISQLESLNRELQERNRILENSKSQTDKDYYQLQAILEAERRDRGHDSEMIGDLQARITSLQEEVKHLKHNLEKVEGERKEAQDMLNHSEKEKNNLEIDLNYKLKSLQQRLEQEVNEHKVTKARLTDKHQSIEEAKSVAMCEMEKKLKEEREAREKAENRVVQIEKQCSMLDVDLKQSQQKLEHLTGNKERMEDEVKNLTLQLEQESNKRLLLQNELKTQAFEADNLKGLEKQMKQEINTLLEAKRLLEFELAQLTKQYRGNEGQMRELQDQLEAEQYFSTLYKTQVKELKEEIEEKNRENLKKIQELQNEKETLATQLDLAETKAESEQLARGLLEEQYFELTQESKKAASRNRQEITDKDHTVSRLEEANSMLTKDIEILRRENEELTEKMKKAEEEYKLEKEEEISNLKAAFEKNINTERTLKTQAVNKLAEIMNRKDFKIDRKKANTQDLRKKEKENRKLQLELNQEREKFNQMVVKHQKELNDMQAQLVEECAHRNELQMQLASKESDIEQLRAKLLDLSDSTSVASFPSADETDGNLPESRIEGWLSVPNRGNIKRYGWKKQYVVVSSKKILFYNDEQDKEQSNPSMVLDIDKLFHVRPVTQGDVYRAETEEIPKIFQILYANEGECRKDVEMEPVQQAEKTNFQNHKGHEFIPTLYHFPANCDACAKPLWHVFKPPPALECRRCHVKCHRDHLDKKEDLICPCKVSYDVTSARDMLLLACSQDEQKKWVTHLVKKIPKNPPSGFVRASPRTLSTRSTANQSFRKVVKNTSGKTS
Chain of FLT1 (P17948 27-1338, species assumed): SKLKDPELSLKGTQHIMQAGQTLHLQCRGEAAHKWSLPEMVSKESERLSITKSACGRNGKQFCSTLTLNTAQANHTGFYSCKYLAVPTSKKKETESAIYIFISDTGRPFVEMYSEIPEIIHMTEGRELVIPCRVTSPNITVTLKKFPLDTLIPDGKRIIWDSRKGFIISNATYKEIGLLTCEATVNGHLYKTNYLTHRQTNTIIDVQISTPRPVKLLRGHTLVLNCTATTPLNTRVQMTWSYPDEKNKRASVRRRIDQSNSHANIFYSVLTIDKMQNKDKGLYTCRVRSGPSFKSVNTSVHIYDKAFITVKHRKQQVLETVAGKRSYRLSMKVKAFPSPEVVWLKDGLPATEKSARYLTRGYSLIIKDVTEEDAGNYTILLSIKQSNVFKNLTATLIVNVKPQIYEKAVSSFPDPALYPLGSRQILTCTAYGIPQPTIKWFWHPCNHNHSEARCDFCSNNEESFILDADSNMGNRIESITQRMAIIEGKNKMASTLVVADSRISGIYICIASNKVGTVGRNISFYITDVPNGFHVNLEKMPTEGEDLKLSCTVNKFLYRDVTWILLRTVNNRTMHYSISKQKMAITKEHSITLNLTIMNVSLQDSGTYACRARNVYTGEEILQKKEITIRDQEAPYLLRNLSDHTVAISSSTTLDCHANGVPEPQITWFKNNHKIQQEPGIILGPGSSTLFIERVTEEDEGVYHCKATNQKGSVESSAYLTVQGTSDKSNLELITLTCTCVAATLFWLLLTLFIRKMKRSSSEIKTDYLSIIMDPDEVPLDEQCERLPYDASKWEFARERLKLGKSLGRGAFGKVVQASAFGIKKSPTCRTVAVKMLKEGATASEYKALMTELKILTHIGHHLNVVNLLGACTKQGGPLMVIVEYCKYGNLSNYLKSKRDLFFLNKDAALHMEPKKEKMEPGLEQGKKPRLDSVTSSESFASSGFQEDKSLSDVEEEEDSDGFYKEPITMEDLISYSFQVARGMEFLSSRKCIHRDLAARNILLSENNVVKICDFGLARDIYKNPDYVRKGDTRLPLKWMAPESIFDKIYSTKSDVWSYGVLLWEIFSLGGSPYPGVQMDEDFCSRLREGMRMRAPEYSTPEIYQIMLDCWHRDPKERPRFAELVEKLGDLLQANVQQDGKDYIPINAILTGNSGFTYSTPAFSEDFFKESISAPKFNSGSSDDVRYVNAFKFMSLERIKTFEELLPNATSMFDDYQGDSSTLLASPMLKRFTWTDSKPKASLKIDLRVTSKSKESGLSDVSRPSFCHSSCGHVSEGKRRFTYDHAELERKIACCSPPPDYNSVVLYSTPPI
Chain of STK4 (Q13043 whole entry, species assumed): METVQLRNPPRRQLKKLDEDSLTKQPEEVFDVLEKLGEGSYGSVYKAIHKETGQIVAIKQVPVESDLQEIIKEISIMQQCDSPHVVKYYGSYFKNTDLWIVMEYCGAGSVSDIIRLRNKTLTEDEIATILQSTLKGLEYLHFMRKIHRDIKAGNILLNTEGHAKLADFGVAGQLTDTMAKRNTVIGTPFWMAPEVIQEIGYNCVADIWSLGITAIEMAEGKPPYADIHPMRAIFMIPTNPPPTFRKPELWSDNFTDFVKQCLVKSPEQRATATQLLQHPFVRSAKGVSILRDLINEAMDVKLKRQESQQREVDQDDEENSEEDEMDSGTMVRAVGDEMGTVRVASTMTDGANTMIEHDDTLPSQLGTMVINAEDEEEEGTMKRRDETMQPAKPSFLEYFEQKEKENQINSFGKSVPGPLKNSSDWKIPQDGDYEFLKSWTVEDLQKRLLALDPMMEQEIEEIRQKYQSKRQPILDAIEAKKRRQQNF
Chain of PAK1 (Q13153 whole entry): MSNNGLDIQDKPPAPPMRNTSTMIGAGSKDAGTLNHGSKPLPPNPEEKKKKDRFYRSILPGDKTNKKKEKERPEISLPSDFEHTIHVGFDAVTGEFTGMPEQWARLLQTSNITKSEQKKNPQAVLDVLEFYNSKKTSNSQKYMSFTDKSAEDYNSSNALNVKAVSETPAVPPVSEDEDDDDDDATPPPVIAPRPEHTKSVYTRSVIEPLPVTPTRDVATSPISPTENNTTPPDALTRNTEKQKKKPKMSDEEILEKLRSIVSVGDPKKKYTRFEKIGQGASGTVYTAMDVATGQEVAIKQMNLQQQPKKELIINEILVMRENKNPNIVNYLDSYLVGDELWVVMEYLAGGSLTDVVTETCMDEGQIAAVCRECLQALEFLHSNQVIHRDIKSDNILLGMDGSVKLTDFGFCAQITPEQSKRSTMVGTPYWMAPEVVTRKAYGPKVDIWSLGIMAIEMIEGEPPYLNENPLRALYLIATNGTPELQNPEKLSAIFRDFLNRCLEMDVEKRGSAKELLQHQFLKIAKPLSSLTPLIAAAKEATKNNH
Chain of PIP5K1A (Q99755 whole entry, species assumed): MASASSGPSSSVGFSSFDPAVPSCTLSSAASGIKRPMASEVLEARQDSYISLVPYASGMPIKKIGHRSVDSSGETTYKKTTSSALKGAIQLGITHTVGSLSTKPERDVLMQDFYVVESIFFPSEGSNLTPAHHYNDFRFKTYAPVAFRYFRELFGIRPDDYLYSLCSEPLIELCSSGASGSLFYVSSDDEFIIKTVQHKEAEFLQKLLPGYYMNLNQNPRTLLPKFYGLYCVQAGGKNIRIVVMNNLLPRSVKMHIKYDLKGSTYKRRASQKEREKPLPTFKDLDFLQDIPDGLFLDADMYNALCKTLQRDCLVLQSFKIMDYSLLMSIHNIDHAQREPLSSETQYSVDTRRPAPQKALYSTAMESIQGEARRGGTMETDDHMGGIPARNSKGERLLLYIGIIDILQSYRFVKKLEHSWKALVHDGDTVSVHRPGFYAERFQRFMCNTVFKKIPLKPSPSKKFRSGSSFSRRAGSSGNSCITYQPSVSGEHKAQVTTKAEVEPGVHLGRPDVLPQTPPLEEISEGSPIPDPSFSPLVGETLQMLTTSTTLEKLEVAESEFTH

Structure (SMILES): CC(C)Oc1cc(F)ccc1Nc1ncnc2cc(C(=O)NCCCN(C)C)n(C)c12 [Example 40, N-[3-(dimethylamino)propyl]-4-{[4-fluoro-2-(propan-2-yloxy)phenyl]amino}-5-methyl-5H-pyrrolo[3,2-d]pyrimidine-6-carboxamide]
- inhibition at 1 µM (PAK4): 0%
- inhibition at 1 µM (RPS6KA1): 0%
- inhibition at 1 µM (MARK1): 0%
- inhibition at 1 µM (STK4): 0%
- inhibition at 1 µM (IRAK4): 0%
- inhibition at 1 µM (CDK2/CCNA2): 0%
- inhibition at 1 µM (PRKCA): 5%
- inhibition at 1 µM (FLT3): 24%
- inhibition at 1 µM (BTK): 0%
- inhibition at 1 µM (MINK1): 0%
- inhibition at 1 µM (PAK1): 0%
- inhibition at 1 µM (STK10): 0%
- inhibition at 1 µM (SGK1): 0%
- inhibition at 1 µM (JAK2): 0%
- inhibition at 1 µM (PIK3C2G): 4%
- inhibition at 1 µM (PLK1): 0%
- inhibition at 1 µM (PRKAA2): 0%
- inhibition at 1 µM (MAPK8): 0%
- inhibition at 1 µM (ROCK1): 0%
- inhibition at 1 µM (PIP4K2A): 7%
- inhibition at 1 µM (MAP3K9): 0%
- inhibition at 1 µM (ACVR1B): 0%
- inhibition at 1 µM (NUAK1): 0%
- inhibition at 1 µM (PIP5K1A): 2%
- inhibition at 1 µM (PRKG1): 0%
- IC50 (Full-length human MNK2): 0.0398 µM
- inhibition at 1 µM (ULK2): 0%
- inhibition at 1 µM (CHEK1): 0%
- inhibition at 1 µM (MAP2K7): 0%
- inhibition at 1 µM (DMPK): 0%
- inhibition at 1 µM (MAP3K7): 5%
- inhibition at 1 µM (RET): 1%
- inhibition at 1 µM (FLT1): 8%
- inhibition at 1 µM (MTOR): 0%

Source: patent US10604524B2, “Pyrropyrimidine compounds as MNKs inhibitors” (LIFEARC, priority 2015, dated 2020)
